Key:
Plasmodium falciparum = assay: Antimalarial activity against Plasmodium falciparum K1 infected in human erythrocytes after 72 hrs by lactate dehydrogenase assay; type: functional, organism-based; settings: K1, 72 h
[1] = Cytotoxicity against human MRC5 cells assessed as decrease in cell viability after 7 days by MTT assay; type: cell-based
[2] = Selectivity index, ratio of CC50 for human MRC5 cells to IC50 for Plasmodium falciparum K1; type: toxicity; settings: read-out: Ratio CC50/IC50
RAW264.7 = assay: Antiinflammatory activity in mouse RAW264.7 cells assessed as inhibition of LPS-induced nitric oxide production preincubated for 3 hrs followed by LPS challenge measured after 20 hrs by Griess assay; type: functional, cell-based
HL-60 = assay: Cytotoxicity against human HL60 cells after 48 hrs by CCK8 assay; type: functional, cell-based; settings: HL-60, 48 h
HeLa = assay: Cytotoxicity against human HeLa cells after 48 hrs by CCK8 assay; type: functional, cell-based

Structure (SMILES)	IC50 (Plasmodium falciparum) [µM]	also measured
CC(=O)OC[C@@]1(C)CCC[C@]2(C)[C@H]3Cc4occc4[C@@](C)(O)[C@@H]3[C@@H](O)[C@H](OC(C)=O)[C@@H]12	> 28.8	
CC(=O)O[C@H]1[C@H](O)[C@@H]2[C@H](Cc3occc3[C@@]2(C)O)[C@@]2(C)CCCC(C)(C)[C@H]12	32.2	CC50 at 168 h [1]: 139 µM; selectivity ratio [2]: 4.3; IC50 (RAW264.7): 30.6 µM
COC(=O)[C@@H]1c2ccoc2C[C@H]2[C@H]1[C@@H](OC(C)=O)[C@H](O)[C@H]1[C@](C)(COC(C)=O)CCC[C@]21C	> 27	
COC(=O)[C@@H]1c2ccoc2C[C@H]2[C@H]1[C@@H](OC(C)=O)[C@@H]1OC(=O)[C@]3(C)CCC[C@@]2(C)[C@@H]13	> 30	
COC(=O)[C@@H]1c2ccoc2C[C@H]2[C@H]1[C@@H](O)[C@H](O)[C@H]1C(C)(C)CCC[C@]21C	22.9	CC50 at 168 h [1]: > 276 µM; selectivity ratio [2]: > 12
COC(=O)[C@@H]1c2ccoc2C[C@H]2[C@H]1[C@@H](OC(C)=O)[C@H](O)[C@H]1C(C)(C)CCC[C@]21C	> 30.9	
CC(=O)OC[C@@H]1c2ccoc2C[C@H]2[C@H]1C[C@H](OC(C)=O)[C@H]1C(C)(C)CCC[C@]21C	23.5	CC50 at 168 h [1]: 44.1 µM; IC50 (HL-60): 32.6 µM; selectivity ratio [2]: 1.9; IC50 (HeLa): 32.2 µM
COC(=O)[C@@H]1c2ccoc2C[C@H]2[C@H]1[C@@H](O)[C@H](O)[C@H]1[C@](C)(CO)CCC[C@]21C		IC50 (HL-60): 9.8 µM
COC(=O)[C@@H]1c2ccoc2C[C@H]2[C@H]1[C@@H](OC(C)=O)[C@H](O)[C@@H]1[C@]2(C)CCC[C@@]1(C)C(=O)OC	> 27.9	
COC(=O)[C@@H]1c2ccoc2C[C@H]2[C@H]1[C@@H](O)[C@H](OC(C)=O)[C@H]1C(C)(C)CCC[C@]21C	> 30.9	
C[C@@H]1CC[C@H]2[C@@H](C)C(=O)O[C@@H]3O[C@@]4(C)CC[C@@H]1[C@]32OO4 [ARTEMISININ]	0.025	

From ChEMBL document CHEMBL4130575, “Sucupiranins A-L, Furanocassane Diterpenoids from the Seeds of Bowdichia virgilioides” (J Nat Prod, 2017)
